Key:
PI3Kdelta = biological target: T1, PI3Kdelta (Homo sapiens, UniProt O00329); test: HTRF PI3K biochemical assay, delta isoform; conditions: 0.3 nM enzyme, 100 uM ATP, 5 uM PIP2, form screened (Neutral or TFA salt) given per compound
T1 construct: purchased Upstate; Millipore 14-604
Outline: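 PI3Kδ at 0.3 nM with 100 uM ATP and 5 uM PIP2, 10-point 3-fold dilutions, 15 min enzyme–compound pre-incubation, then 1 h reaction at room temperature. PIP3 formation detected by HTRF displacement of biotin-PIP3 from GST-GRP1-PH (665/620 nm ratio). IC50 corrected using a PIP3 standard curve.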

PI3Kalpha = biological target: T2, PI3Kalpha (Homo sapiens, UniProt P42336); test: HTRF PI3K biochemical assay, alpha isoform (selectivity versus delta); conditions: relative ratio PI3K-alpha IC50 value / PI3K-delta IC50 value
T2 construct: purchased Upstate; Millipore 14-602
Outline: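 Recombinant PI3Kα (0.5 nM) pre-incubated 15 min with compound, then reacted 1 h at room temperature with 5 μM PIP2 and 100 μM ATP. After EDTA stop, PIP3 measured by HTRF displacement of biotin-PIP3 from GST-GRP1 PH domain (665/620 nm). 10-point dose response; IC50 corrected using a PIP3 standard curve.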

T2 sequence (P42336 whole entry, canonical isoform): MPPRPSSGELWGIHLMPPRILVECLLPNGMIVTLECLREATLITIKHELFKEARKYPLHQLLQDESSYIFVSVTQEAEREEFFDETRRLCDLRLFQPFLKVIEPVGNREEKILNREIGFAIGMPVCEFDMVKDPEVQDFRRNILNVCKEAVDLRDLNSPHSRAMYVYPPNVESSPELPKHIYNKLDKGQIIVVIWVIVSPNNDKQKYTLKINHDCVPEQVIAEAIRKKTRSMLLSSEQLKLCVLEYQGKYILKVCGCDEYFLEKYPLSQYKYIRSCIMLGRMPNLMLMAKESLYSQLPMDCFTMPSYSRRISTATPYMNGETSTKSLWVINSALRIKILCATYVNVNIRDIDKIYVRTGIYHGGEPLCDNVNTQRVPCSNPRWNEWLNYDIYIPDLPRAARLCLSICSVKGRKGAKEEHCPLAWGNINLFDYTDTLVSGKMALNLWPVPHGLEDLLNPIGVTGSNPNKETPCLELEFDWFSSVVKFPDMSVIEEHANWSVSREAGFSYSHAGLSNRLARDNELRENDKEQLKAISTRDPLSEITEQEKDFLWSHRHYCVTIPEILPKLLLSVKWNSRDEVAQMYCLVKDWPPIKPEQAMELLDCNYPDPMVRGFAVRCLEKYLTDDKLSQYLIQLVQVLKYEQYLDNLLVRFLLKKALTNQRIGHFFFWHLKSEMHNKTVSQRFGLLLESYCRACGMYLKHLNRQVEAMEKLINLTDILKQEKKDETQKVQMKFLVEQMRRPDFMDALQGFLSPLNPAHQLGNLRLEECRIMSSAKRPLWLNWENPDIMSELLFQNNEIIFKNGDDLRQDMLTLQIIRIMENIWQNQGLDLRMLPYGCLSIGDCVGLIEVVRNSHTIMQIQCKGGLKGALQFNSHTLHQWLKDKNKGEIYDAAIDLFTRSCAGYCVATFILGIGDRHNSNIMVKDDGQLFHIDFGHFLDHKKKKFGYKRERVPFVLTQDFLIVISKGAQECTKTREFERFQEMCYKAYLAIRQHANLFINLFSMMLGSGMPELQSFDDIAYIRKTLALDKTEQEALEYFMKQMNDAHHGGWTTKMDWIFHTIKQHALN
T2 sequence (P27986 whole entry partner, canonical isoform): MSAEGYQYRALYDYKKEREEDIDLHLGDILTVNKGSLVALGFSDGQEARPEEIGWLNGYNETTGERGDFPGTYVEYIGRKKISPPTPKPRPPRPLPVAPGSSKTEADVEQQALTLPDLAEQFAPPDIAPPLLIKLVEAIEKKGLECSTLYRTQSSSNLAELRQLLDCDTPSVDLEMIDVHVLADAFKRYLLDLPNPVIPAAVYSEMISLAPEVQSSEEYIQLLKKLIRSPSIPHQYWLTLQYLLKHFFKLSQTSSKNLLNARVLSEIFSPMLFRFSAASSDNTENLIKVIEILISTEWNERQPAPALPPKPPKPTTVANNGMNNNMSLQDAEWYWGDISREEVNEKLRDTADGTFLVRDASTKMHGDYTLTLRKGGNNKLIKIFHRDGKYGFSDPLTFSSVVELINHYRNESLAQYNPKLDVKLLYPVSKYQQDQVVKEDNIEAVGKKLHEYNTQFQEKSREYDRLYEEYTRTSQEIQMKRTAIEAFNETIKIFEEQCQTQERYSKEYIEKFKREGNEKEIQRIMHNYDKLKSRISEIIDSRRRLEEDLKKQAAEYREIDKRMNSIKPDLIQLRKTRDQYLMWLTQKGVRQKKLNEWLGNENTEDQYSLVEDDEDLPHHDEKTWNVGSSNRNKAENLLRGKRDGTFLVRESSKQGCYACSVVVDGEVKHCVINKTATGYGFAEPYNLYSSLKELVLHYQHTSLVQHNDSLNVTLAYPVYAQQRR
T1 sequence (O00329 whole entry, canonical isoform): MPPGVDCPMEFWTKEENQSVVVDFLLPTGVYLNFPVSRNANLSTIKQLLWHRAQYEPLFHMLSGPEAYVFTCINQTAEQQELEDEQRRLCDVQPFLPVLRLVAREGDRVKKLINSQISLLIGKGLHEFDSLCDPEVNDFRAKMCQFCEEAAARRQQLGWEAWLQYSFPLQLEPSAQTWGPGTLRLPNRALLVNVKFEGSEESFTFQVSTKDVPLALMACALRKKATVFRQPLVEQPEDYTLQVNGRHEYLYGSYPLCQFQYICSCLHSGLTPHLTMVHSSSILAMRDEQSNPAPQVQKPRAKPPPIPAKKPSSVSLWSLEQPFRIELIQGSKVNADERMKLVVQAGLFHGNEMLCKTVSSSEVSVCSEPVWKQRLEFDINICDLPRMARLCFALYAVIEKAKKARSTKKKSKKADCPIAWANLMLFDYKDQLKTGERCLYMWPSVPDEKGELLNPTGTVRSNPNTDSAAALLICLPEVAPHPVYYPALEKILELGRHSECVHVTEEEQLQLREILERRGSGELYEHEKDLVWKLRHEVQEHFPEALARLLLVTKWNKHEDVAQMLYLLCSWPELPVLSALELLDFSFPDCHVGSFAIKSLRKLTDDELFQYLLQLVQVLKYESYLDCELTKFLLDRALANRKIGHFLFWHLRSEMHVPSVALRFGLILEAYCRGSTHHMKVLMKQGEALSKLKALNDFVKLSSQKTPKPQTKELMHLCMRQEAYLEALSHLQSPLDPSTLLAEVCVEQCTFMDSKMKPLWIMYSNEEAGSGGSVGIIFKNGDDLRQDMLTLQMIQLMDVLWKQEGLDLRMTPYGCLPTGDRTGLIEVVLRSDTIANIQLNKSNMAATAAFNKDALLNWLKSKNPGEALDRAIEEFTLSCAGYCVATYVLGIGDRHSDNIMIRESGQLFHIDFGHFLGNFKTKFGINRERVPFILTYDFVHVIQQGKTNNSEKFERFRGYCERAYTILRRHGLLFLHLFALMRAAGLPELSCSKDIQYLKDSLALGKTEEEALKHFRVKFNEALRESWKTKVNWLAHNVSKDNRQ
T1 sequence (P27986 whole entry partner, canonical isoform): as the sequence (P27986 whole entry partner, canonical isoform) above

Row | Structure (SMILES) | IC50 (PI3Kdelta) [nM] | Selectivity versus PI3Kalpha (PI3Kalpha)
1 | CCn1c(-c2cnc(C)nc2)nc2c(NC3CCc4c(c(C(C)C)nn4C(=O)OC)C3)ncnc21 (single isomer, unassigned) [Compound 2-19, (S or R)-methyl 5-{[9-ethyl-8-(2-methylpyrimidin-5-yl)-9H-purin-6-yl]amino}-3-(1-methylethyl)-4,5,6,7-tetrahydro-1H-indazole-1-carboxylate] | 1 | >10
2 | CCn1c(-c2cnc(C)nc2)nc2c(NC3CCc4nn(C)c(C(C)C)c4C3)ncnc21 (single isomer, unassigned) [Compound 2-24, (S or R)-9-ethyl-N-[(5S)-2-methyl-3-(1-methylethyl)-4,5,6,7-tetrahydro-2H-indazol-5-yl]-8-(2-methylpyrimidin-5-yl)-9H-purin-6-amine] | 41 | >10
3 | CCn1c(-c2cnc(C)nc2)nc2c(NC3CCc4c(c(C(C)C)nn4C)C3)ncnc21 (single isomer, unassigned) [Compound 2-25, (S or R)-9-ethyl-N-[(5S)-1-methyl-3-(1-methylethyl)-4,5,6,7-tetrahydro-1H-indazol-5-yl]-8-(2-methylpyrimidin-5-yl)-9H-purin-6-amine] | 14 | >10
4 | CCn1c(-c2cnc(C)nc2)nc2c(NC3CCc4cnc(C5CC5)n4C3)ncnc21 (single isomer, unassigned) [Compound 3-1, (S or R)-N-[3-cyclopropyl-5,6,7,8-tetrahydroimidazo[1,5-a]pyridin-6-yl]-9-ethyl-8-(2-methylpyrimidin-5-yl)-9H-purin-6-amine] | 11 | >10
5 | CCn1c(-c2cnc(C)nc2)nc2c(NC3CCc4cnc(C(C)C)n4C3)ncnc21 (single isomer, unassigned) [Compound 3-2, (S or R)-9-ethyl-N-[3-(1-methylethyl)-5,6,7,8-tetrahydroimidazo[1,5-a]pyridin-6-yl)-8-(2-methylpyrimidin-5-yl)-9H-purin-6-amine] | 5.2 | >10
6 | CCn1c(-c2cnc(C)nc2)nc2c(NC3CCc4ncc(C5CC5)n4C3)ncnc21 (single isomer, unassigned) [Compound 4-1, (S or R)-N-(3-cyclopropyl 5,6,7,8-tetrahydroimidazo[1,2-a]pyridin-6-yl)-9-ethyl-8-(2-methylpyrimidin-5-yl)-9H-purin-6-amine] | 6.9 | >10
7 | CCn1c(-c2cnc(C)nc2)nc2c(NC3CCc4ncc(C5CC5)n4C3)ncnc21 (single isomer, unassigned) [Compound 4-2, (S or R)-N-(3-cyclopropyl-5,6,7,8-tetrahydroimidazo[1,2-a]pyridin-6-yl)-9-ethyl-8-(2-methylpyrimidin-5-yl)-9H-purin-6-amine] | 290 | >10
8 | CCn1c(-c2cnc(C)nc2)nc2c(NC3CCc4ncc(C(C)C)n4C3)ncnc21 (single isomer, unassigned) [Compound 4-3, (S or R)-9-ethyl-N-[3-(1-methylethyl)-5,6,7,8-tetrahydroimidazo[1,2-a]pyridin-6-yl]-8-(2-methylpyrimidin-5-yl)-9H-purin-6-amine] | 2.8 | >10
9 | CCn1c(-c2cnc(C)nc2)nc2c(NC3CCc4ncc(C(C)C)n4C3)ncnc21 (single isomer, unassigned) [Compound 4-4, (S or R)-9-ethyl-N-[3-(1-methylethyl)-5,6,7,8-tetrahydroimidazo[1,2-a]pyridin-6-yl]-8-(2-methylpyrimidin-5-yl)-9H-purin-6-amine] | 210 | >10

Now from value to compound:

Row | IC50 (PI3Kdelta) [nM] | Selectivity versus PI3Kalpha (PI3Kalpha) | Structure (SMILES)
10 | 5.5 | >10 | CCn1c(-c2cnc(C)nc2)nc2c(NC3CCc4ncn(C5CC5)c4C3)ncnc21 (single isomer, unassigned) [Compound 5-1, (S or R)-N-(1-cyclopropyl-4,5,6,7-tetrahydro-1H-benzimidazol-6-yl)-9-ethyl-8-(2-methylpyrimidin-5-yl)-9H-purin-6-amine]
11 | 3.3 | >10 | CCn1c(-c2ccc(C(F)(F)F)nc2)nc2c(NC3CCc4ncn(C5CC5)c4C3)ncnc21 (single isomer, unassigned) [Compound 5-2, (S or R)-N-(1-cyclopropyl-4,5,6,7-tetrahydro-1H-benzimidazol-6-yl)-9-ethyl-8-[6-(trifluoromethyl)pyridin-3-yl]-9H-purin-6-amine]
12 | 180 | >10 | CCn1c(-c2ccc(C(F)(F)F)nc2)nc2c(NC3CCc4ncn(C5CC5)c4C3)ncnc21 (single isomer, unassigned) [Compound 5-3, (S or R)-N-(1-cyclopropyl-4,5,6,7-tetrahydro-1H-benzimidazol-6-yl)-9-ethyl-8-[6-(trifluoromethyl)pyridin-3-yl]-9H-purin-6-amine]
13 | 180 | >10 | CCn1c(-c2ccc(C(F)(F)F)cc2)nc2c(NC3CCc4ncn(C5CC5)c4C3)ncnc21 (single isomer, unassigned) [Compound 5-4, (S or R)-N-(1-cyclopropyl-4,5,6,7-tetrahydro-1H-benzimidazol-6-yl)-9-ethyl-8-[4-(trifluoromethyl)phenyl]-9H-purin-6-amine]
14 | 5.1 | >10 | CCn1c(-c2ccc(C(F)(F)F)cc2)nc2c(NC3CCc4ncn(C5CC5)c4C3)ncnc21 (single isomer, unassigned) [Compound 5-5, (S or R)-N-(1-cyclopropyl-4,5,6,7-tetrahydro-1H-benzimidazol-6-yl)-9-ethyl-8-[4-(trifluoromethyl)phenyl]-9H-purin-6-amine]
15 | 170 | >10 | CCn1c(C(F)F)nc2c(NC3CCc4ncn(C5CC5)c4C3)ncnc21 (single isomer, unassigned) [Compound 5-6, (S or R)-N-(1-cyclopropyl-4,5,6,7-tetrahydro-1H-benzimidazol-6-yl)-8-(difluoromethyl)-9-ethyl-9H-purin-6-amine]
16 | 19 | >10 | CCn1c(-c2cnc(C)nc2)nc2c(NC3CCc4nc(C)n(C5CC5)c4C3)ncnc21 (single isomer, unassigned) [Compound 5-7, (S or R)-N-(1-cyclopropyl-2-methyl-4,5,6,7-tetrahydro-1H-benzimidazol-6-yl)-9-ethyl-8-(2-methylpyrimidin-5-yl)-9H-purin-6-amine]
17 | 21 | >10 | CCc1nc2c(n1C1CC1)CC(Nc1ncnc3c1nc(-c1cnc(C)nc1)n3CC)CC2 (single isomer, unassigned) [Compound 5-8, (S or R)-N-(1-cyclopropyl-2-ethyl-4,5,6,7-tetrahydro-1H-benzimidazol-6-yl)-9-ethyl-8-(2-methylpyrimidin-5-yl)-9H-purin-6-amine]
18 | 51 | >10 | CCn1c(C(=O)NCC(F)(F)F)nc2c(NC3CCc4ncn(C5CC5)c4C3)ncnc21 (single isomer, unassigned) [Compound 5-9, (S or R)-6-[(1-cyclopropyl-4,5,6,7-tetrahydro-1H-benzimidazol-6-yl)amino]-9-ethyl-N-(2,2,2-trifluoroethyl)-9H-purine-8-carboxamide]
19 | < 1 | >10 | CCn1c(-c2cnc(C)nc2)nc2c(NC3CCc4nc(C(F)F)n(C5CC5)c4C3)ncnc21 (single isomer, unassigned) [Compound 5-10, (S or R)-N-[1-cyclopropyl-2-(difluoromethyl)-4,5,6,7-tetrahydro-1H-benzimidazol-6-yl]-9-ethyl-8-(2-methylpyrimidin-5-yl)-9H-purin-6-amine]
20 | 40 | >10 | CCn1c(-c2cnc(C)nc2)nc2c(NC3CCc4nc(C(F)F)n(C5CC5)c4C3)ncnc21 (single isomer, unassigned) [Compound 5-11, (S or R)-N-[1-cyclopropyl-2-(difluoromethyl)-4,5,6,7-tetrahydro-1H-benzimidazol-6-yl]-9-ethyl-8-(2-methylpyrimidin-5-yl)-9H-purin-6-amine]
21 | 4.7 | >10 | CCn1c(-c2cnc(C)nc2)nc2c(NC3CCc4ncn([C@H]5C[C@@H](OC)C5)c4C3)ncnc21 (single isomer, unassigned) [Compound 5-13, (S or R)-9-ethyl-N-[1-(cis-3-methoxycyclobutyl)-4,5,6,7-tetrahydro-1H-benzimidazol-6-yl]-8-(2-methylpyrimidin-5-yl)-9H-purin-6-amine]
22 | 230 | >10 | CCn1c(-c2cnc(C)nc2)nc2c(NC3CCc4ncn([C@H]5C[C@@H](OC)C5)c4C3)ncnc21 (single isomer, unassigned) [Compound 5-14, (S or R)-9-ethyl-N-[1-(cis-3-methoxycyclobutyl)-4,5,6,7-tetrahydro-1H-benzimidazol-6-yl]-8-(2-methylpyrimidin-5-yl)-9H-purin-6-amine]
23 | 4.2 | >10 | CCn1c(-c2cnc(C)nc2)nc2c(NC3CCc4ncn(C(C)C)c4C3)ncnc21 (single isomer, unassigned) [Compound 5-15, (S or R)-9-ethyl-N-[1-(1-methylethyl)-4,5,6,7-tetrahydro-1H-benzimidazol-6-yl]-8-(2-methylpyrimidin-5-yl)-9H-purin-6-amine]
